Source: PMC8152782, “Synthesis and evaluation of bis(imino)anthracene derivatives as G-quadruplex ligands” (RSC Medicinal Chemistry, 2021)
Where two headings read alike, the source gives them in different places.

Experiments:
HeLa cells = assay: Presto blue cell viability assay, HeLa cells; assay type: cell-based, Human; settings: 24 hour incubation, n = 3
Method: Fig. 3 Cell culture, presto blue assay results for 2a, 2b, 2c, 2d, 2e. The data shown is after 24 hour incubation of drug treated HeLa cells. Top chart illustrates mean and SEM of HeLa cell viability at concentrations 100 to 1 μM with positive control (doxorubicin (N2)). In the top charts, values are normalized to negative control (DMSO) at a value of 1 (cell viability). The bottom charts then show the normalized absorbance percentage to the negative control (percentage cell viability) of log inhibitor concentration (multiplied by 10 to account for 1 μM concentration) IC50 values and R squared values are included in the chart. Error bars indicates standard error of mean from n = 3 experiments.
Compounds 2a–2e were subsequently tested against a HeLa cancer cell line (HeLa, American Type Culture Collection (ATCC) (ATCC® CCL-2™)) and they were all prepared in 100, 30, 10 and 1 μM concentrations so that IC50 values could be calculated to establish whether drugs were cytotoxic to HeLa cells (see ESI ^† S1).
Cell suspension (200μl) containing 5000 healthy HeLa cells was seeded in 96-well plates (BDFalcon, Franklin Lakes, NJ) and allowed to attach and stabilize overnight at 37 °C with 5%
CO2. Aspiration of media and rinsing solution was done through pipetting off liquid. Cell viability was then tested with PrestoBlue assay.The presto blue assay was carried out in light sensitive conditions. 100μl of PrestoBlue solution (10% in medium) was added to each well and the plates were incubated at 37 °C for 1 hour. After incubation time, the change in florescence was measured at 570/600 nm using a Spectra Max fluorescence multi-well plate reader.
Dissociation constants were calculated using the curve-fitting software Graphpad Prism 8.
Incubation was done using Thermofisher Steri-Cycle CO2 Incubators and for plate reading Thermofisher Epoch Microplate Spectrophotometer was used. Centrifugation was done by Thermo Scientific Sorvall ST 40 Centrifuge Series.
Commercially available DMEM (Dulbecco’s Modified Eagle Medium- low glucose), including sodium pyruvate and […], 500 mL, was obtained from Gibco, USA. All procedures carried out under sterile conditions, 94 mL of media was taken and the required volume of supplements (10 % Fetal Bovine Serum (FBS), 2 mM/mL Glutamine, 100 U/mL penicillin and 100 µg/mL streptomycin.) were added.
Cell Line and Cell Culture Conditions
Human cervical cancer cell lines (HeLa) were obtained from the American Type Culture Collection (ATCC) (ATCC® CCL-2™). HeLa cells were cultured in Dulbecco’s Eagle Modified Medium low glucose (DMEM) containing 10 % Fetal Bovine Serum (FBS), 2 mM/mL Glutamine, 100 U/mL penicillin and 100 µg/mL streptomycin.
%viable cells = 1 ‒ Number of blue cells x 100 […]
Cryovials were taken from the liquid nitrogen tank and thawed quickly at 37 °C. After that, the cell suspension was transferred to a 15 mL tube and 5 mL of the medium was added into the cell suspension drop by drop with gentle shaking. Centrifugation was done at 1500rpm for 5 min and then supernatant was discarded. After the pellet was resuspended with medium, they were seeded to T-25 flasks. Subsequent to 12 hours incubation, the media was removed and washed with DPBS (1X) (pH:7.4) containing 10 mM sodium dibasic phosphate, 2.7 mM KCI, 2 mM Potassium phosphate,137 mM NaCI. Fresh media was added to the cell monolayer a […]
Assays were carried out using a 96 well plate. This 96-well plate contains one blank, 3 controls which contains cells including a negative control with media, one vehicle control which is DMSO and medium solutions, and a positive control of Doxorubicin (200µL) and media. Drugs were prepared in 100, 30, 10, 1 µM concentrations to make 8 seeded well plates in total which were done in triplicate. All drugs were prepared in DMSO and then diluted in media to give 5µL of DMSO max in 100µM treatments which is controlled by vehicle with a DMSO volume

d(TTGGGTT)4 [1] = assay: NMR titration of ligands with G-quadruplex oligonucleotide; assay type: binding; settings: for Difference from 11.55 ppm (ppm) G3NH: 1H NMR chemical shift difference of G-quadruplex peak G3NH on ligand addition; for Difference from 11.22 ppm (ppm) G4NH: 1H NMR chemical shift difference of G-quadruplex peak G4NH on ligand addition; for Difference from 10.86 ppm (ppm) G5NH: 1H NMR chemical shift difference of G-quadruplex peak G5NH on ligand addition; for Difference from 1.58 ppm (ppm) T6CH3: 1H NMR chemical shift difference of G-quadruplex peak T6CH3 on ligand addition; for Difference from 7.23 ppm (ppm) T6H6/8: 1H NMR chemical shift difference of G-quadruplex peak T6H6/8 on ligand addition; for Δδ (ppm): G quadruplex chemical shift difference
Method: Compounds 2a–2e were evaluated for G-quadruplex interaction using NMR titration studies with d(TTGGGTT)4 with intercalation comparisons made against doxorubicin and nemorubicin (see ESI ^† S1). […] We also see the peaks for T6 (methyl, aromatic and ribose) shifting to a lower field in accord with the up-field shift of the G5 peaks. This change is explained by the formation of a complex between the ligand and the tetrad formed at G5, which pushes the T6 unit away from the guanine π-system. This intercalation framework agreed with ESI/MS carried out which illustrated a 1 : 1 complex.[17]
Maximum line broadening occurs at a ratio of 1 : 1 drug to G-quadruplex and chemical shift difference changing up to 1 : 1 with the bound and unbound peaks being present. […]
This oligonucleotide solvent mix was then micro-pipetted at a volume of 0.6ml into NMR tubes. Stock solutions of drug compounds in DMSO-d6 were used to make up the molar ratios of 0.125:1, 0.25:1, 0.5:1 and 1:1 drug to oligomer.
A non-active drug (TC102) and DMSO on its own were added as controls to validate that the effects on the spectra were from cytotoxic elements of the drug compounds rather than the effects from DMSO or addition of compound, which could change environment, pH or shimming of NMR instrument.
Spectra were acquired at 300 K using a Bruker Avance III 600MHz FT‐NMR. The WATERNOESY parameter set which executes the pulse sequence noesygppr1d (Bruker, size […]
experiments with a pre-saturation delay during relaxation and mixing time (experiment time:
14 min 44 sec). With this pulse sequence, all non-exchangeable protons are detected in the deuterated D2O/H2O buffer solution. T1 relaxation experiments were acquired for d1 calibration with a modified version of the zggpw5 pulse sequence. With a saturation recovery […]
pulse and using water suppression (Bruker, size of fid 65536/11 F2/F1, […]
(experimental time 1 h 4 min 6 sec).
Bruker Topspin 3.5 pl7 was used for assignment of peaks, manual phasing, baseline correction and manual integration. Manual integration was done to ensure bias and slope was correct and that the integrals were all of the same width. Calculation of chemical shift change done through built in top spin distance measurements between peaks.

d(TTGGGTT)4 [2] = test system: d(TTGGGTT)4; design: method as in PMID 26922833; settings: G quadruplex chemical shift difference; cited from earlier work

| SMILES | IC50 (HeLa cells; Homo sapiens, HeLa, 24 h) [µM] | Difference from 11.55 ppm (ppm) G3NH (d(TTGGGTT)4 [1]) [ppm] | Difference from 11.22 ppm (ppm) G4NH (d(TTGGGTT)4 [1]) [ppm] | Difference from 10.86 ppm (ppm) G5NH (d(TTGGGTT)4 [1]) [ppm] | Difference from 1.58 ppm (ppm) T6CH3 (d(TTGGGTT)4 [1]) [ppm] | Difference from 7.23 ppm (ppm) T6H6/8 (d(TTGGGTT)4 [1]) [ppm] | Δδ (ppm) (d(TTGGGTT)4 [1]) | Δδ (ppm) (d(TTGGGTT)4 [2]) | IC50 (HeLa cells) [µM] |
| --- | --- | --- | --- | --- | --- | --- | --- | --- | --- |
| Cc1cnc(/N=C/c2c3ccccc3c(/C=N/c3ncc(C)s3)c3ccccc23)s1 [Compound 2e] | 20.5 | −0.056 | −0.11 | −0.24 | 0.146 | 0.19 | 0.24 | – | – |
| COc1cccc2c1C(=O)c1c(O)c3c(c(O)c1C2=O)C[C@@](O)(C(=O)CO)C[C@@H]3O[C@H]1C[C@H](N)[C@H](O)[C@H](C)O1 [Doxorubicin] | – | – | – | – | – | – | – | 0.31 | – |
| C(=N\Cc1ccc2c(c1)OCO2)/c1c2ccccc2c(/C=N/Cc2ccc3c(c2)OCO3)c2ccccc12 [Compound 2a] | 18.1 | −0.04 | −0.08 | −0.2 | 0.09 | 0.17 | 0.2 | – | – |
| C(=N\CCN1CCCCC1)/c1c2ccccc2c(/C=N/CCN2CCCCC2)c2ccccc12 [Compound 2d] | 24 | −0.03 | −0.07 | −0.13 | 0.094 | 0.16 | 0.13 | – | 23.8 |
| C(=N\CCCN1CCOCC1)/c1c2ccccc2c(/C=N/CCCN2CCOCC2)c2ccccc12 [Compound 2b] | 24.4 | −0.066 | −0.135 | −0.34 | 0.093 | 0.22 | 0.34 | – | – |
| COc1cccc2c1C(=O)c1c(O)c3c(c(O)c1C2=O)C[C@@](O)(C(=O)CO)C[C@@H]3O[C@H]1C[C@H](N2CCO[C@H](OC)C2)[C@H](O)[C@H](C)O1 [Nemorubicin] | – | – | – | – | – | – | – | 0.31 | – |
| C(=N\CCc1c[nH]c2ccccc12)/c1c2ccccc2c(/C=N/CCc2c[nH]c3ccccc23)c2ccccc12 [Compound 2c] | 30.5 | −0.06 | −0.115 | −0.25 | 0.157 | 0.126 | 0.25 | – | 30.6 |
